Measurements taken from patent US12153056B2, “Compositions for and methods of diagnosing, prognosing, and treating diabetes” (Washington University, priority 2019, dated 2024).
Entries after “also recorded” stand apart in the source; their conditions may differ. Bridge positions count the residues as written; N and C are the ends. Ends that are not written are not given here.

How the values were obtained:
[1] = system: 10E11 CD4 T cells; assay: Two-photon motility assay of anti-HEL 10E11 T cells in mice given HEL; type: in vivo, NOD mice; settings: inguinal lymph nodes, day 3 post transfer, indicated amounts of HEL
Method: (§1) CFSE- or CMTMR-labelled T cells were mixed 1:1 and were injected intravenously. For all the two-photon experiments, 2×10^6 T cells with either label were transferred. […] All the recipient mice were 3-4-week-old female mice unless otherwise mentioned. For experiments in FIG. 4f, FACS-sorted 8F10 T cells from pooled iLNs of 8-10 NOD or B16A mice were adoptively transferred intravenously into 4-6-week old NOD. Rag1÷ recipients (10^5 cells per mouse).
Lymph nodes were removed, attached to coverslips, placed in CO2-independent medium (Gibco) at room temperature and immediately imaged in a perfusion chamber to simulate blood flow (36.5° C. DMEM; 95% O2 and 5% CO2). Two-photon microscopy images were collected using a customized Leica SP8 Two-Photon Microscope (Leica Microsystems) equipped with a 25× and 0.95 numerical aperture water-immersion objective and a Mai Tai HP DeepSee Laser (Spectra-Physics) tuned to 840 nm. Fluorescence emission was guided directly to external hybrid photodetectors (Leica/Hamamatsu). […]
(§2) For cell tracking, two or three regions of one lymph node were randomly selected and cropped. […] We also calculated the meandering index and the motility coefficient for each track. […] The mean track velocities (μm/min) were calculated for individual tracks as previously described^11.

[2] = target: T1, insulin receptor (Mus musculus, UniProt P15208); assay: In vivo blockade of insulin receptor by S961 infusion via osmotic pump, blood glucose; set-up: from tissue; host or cells: whole animal (NOD mice), in vivo; settings: S961 20 nMol/week via osmotic pump, 3-week old NOD mice, versus PBS
T1 sequence (P15208 28-748 limits assumed): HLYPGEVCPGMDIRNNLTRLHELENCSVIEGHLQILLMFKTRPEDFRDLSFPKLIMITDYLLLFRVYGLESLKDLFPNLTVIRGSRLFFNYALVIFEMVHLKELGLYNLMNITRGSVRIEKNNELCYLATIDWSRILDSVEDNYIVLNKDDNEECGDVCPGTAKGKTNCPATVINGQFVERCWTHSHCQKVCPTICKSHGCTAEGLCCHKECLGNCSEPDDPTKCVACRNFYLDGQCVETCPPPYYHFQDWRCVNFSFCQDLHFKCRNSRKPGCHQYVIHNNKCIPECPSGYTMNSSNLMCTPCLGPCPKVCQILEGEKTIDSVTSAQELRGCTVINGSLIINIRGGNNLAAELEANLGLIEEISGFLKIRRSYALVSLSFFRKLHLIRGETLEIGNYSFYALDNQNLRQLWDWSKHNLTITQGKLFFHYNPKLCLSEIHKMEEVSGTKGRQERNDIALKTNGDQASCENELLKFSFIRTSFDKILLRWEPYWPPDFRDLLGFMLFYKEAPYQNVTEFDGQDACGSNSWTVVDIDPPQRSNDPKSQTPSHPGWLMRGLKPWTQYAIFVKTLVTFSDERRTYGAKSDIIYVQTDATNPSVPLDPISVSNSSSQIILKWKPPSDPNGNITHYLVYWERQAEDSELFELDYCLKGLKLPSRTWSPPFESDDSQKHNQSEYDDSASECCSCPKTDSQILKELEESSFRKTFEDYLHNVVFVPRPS
T1 sequence (P15208 753-1372 partner limits assumed): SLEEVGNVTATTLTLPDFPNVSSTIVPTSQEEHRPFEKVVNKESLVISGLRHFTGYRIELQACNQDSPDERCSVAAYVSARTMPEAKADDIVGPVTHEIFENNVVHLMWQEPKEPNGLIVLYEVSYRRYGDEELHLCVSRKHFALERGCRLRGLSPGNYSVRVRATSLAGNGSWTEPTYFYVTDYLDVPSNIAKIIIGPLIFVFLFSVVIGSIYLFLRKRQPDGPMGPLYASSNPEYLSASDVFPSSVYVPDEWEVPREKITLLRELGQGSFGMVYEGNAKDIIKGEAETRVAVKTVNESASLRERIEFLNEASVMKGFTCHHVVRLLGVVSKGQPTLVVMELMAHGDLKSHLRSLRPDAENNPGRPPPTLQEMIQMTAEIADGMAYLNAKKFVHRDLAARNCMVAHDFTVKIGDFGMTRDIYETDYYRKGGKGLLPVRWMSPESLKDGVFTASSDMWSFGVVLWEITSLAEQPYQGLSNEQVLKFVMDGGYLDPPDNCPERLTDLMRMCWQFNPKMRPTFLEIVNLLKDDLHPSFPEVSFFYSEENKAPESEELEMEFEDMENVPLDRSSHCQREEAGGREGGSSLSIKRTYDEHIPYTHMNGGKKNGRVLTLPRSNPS
Method: The S961 peptide ([…] (SEQ ID NO: 33)) was synthesized by LifeTein, with an intrachain disulphide bridge between Cys33 and Cys40 (underlined). S961 (20 nMol/week) or control PBS was filled into the Alzet osmotic pump (2001 model, Durect) and inserted subcutaneously in the back of anaesthetized mice through an incision between scapula. Blood glucose levels were monitored twice a day (Chemstrip 2GP; Roche); mice with a level above 250 mg/dl for two consecutive measurements were considered diabetic.

[3] = target: T1, insulin receptor; assay: Two-photon imaging motility assay of transferred T cells in lymph nodes of mice infused with S961 or PBS; type: in vivo, NOD mice; set-up: from tissue; host or cells: whole animal (NOD mice), in vivo; settings: S961 infusion versus PBS, day 3 post transfer
Method: as §1
Lymph nodes were removed, attached to coverslips, placed in CO2-independent medium (Gibco) at room temperature and immediately imaged in a perfusion chamber to simulate blood flow (36.5° C. DMEM; 95% O2 and 5% CO2). […] Fluorescence emission was guided directly to external hybrid photodetectors (Leica/Hamamatsu). […]
as §2
The S961 peptide ([…] (SEQ ID NO: 33)) was synthesized by LifeTein, with an intrachain disulphide bridge between Cys33 and Cys40 (underlined). […] Blood glucose levels were monitored twice a day (Chemstrip 2GP; Roche); mice with a level above 250 mg/dl for two consecutive measurements were considered diabetic.

[4] = target: T1, insulin receptor; assay: Antigen presentation assay: ConA-activated peritoneal macrophages treated with S961, insulin pulse, IIT-3 T cell hybridoma; type: cell-based; set-up: endogenous in cells; host or cells: ConA-stimulated peritoneal macrophages; settings: 0.2 or 1 μM S961 for 1 h before insulin; IIT-3 hybridoma, IL-2 production
Method: (§3) In FIG. 5i, ConA-stimulated peritoneal macrophages were treated with 0.2 or 1 μM S961 for 1 h at 37° C. and were then cultured with the IIT-3 T cell hybridoma that recognizes the 13-21 peptide, in the presence of serially diluted insulin (19278; Sigma). In FIG. 6e, C3g7 cells were treated with chloroquine for 2 h at 37° C., washed, pulsed with the antigens, and cultured with T cell hybridomas. After incubation for 18 h, the culture supernatants were assayed for IL-2 production.

[5] = system: B:13-21-specific IIT-3 and B:12-20-specific 9B9 T cell hybridoma; assay: T cell hybridoma responses to C3g7 APCs treated with or without chloroquine and pulsed with antigens; type: cell-based; settings: C3g7 APCs with or without 100 μM chloroquine for 2 h
Method: as §3

[6] = system: I-A^g7-expressing APCs; assay: Intravenous injection of Alexa Fluor 488-conjugated B:9-23, binding to splenic and thymic APCs by flow cytometry; type: in vivo, mice; settings: 100 μg intravenously, one hour later
Method: FIG. 11a-FIG. 11c: Characterization of circulating B:9-23 and its localization into lymphoid organs. a, Unmodified synthetic B:9-23 (3 pmol) was spiked into 1 ml PBS, purified using C18 tips, lyophilized, and analyzed by nLC-MS/MS. […] An hour later, spleens and thymi were harvested, digested with liberase and DNase, and binding to splenic and thymic APCs was measured by flow cytometry. b, Representative FACS plots showing the binding of B:9-23 to splenic XCR1^+ and Sirpα^+ dendritic cell (DC) subsets and B cells (top). The bar graph summarizes cumulative results from individual mice (each point), pooled from three independent experiments. ns, not significant; **P<0.05; ***P<0.01; ****P<0.005, two-tailed unpaired Student's t-test. c, Representative FACS plots showing the binding of B:9-23 to thymic XCR1^+ and Sirpα^+ DC subsets and to CD45^− cells expressing MHCII. Data are mean±S.D from five individual mice per strain from two independent experiments.

“HEL: hen egg lysozyme, control antigen recognized by 10E11 CD4 T cells” was tested, and the “10E11 T cell velocities” value [1] was “progressive reduction of the 10E11 T cell velocities as the antigen amount increases”.
In the case of “S961: insulin receptor antagonist peptide GSLDESFYDWFERQLGGGSGGSSLEEEWAQIQCEVWGRGCPSY (SEQ ID NO: 33), synthesized by LifeTein (disulfide 33-40; listed as Mus musculus)”, the blood glucose levels [2] is reported as “sustained increase in blood glucose levels”, the “motility arrest of 8F10 T cells” value [3] is reported as “remained at a comparable level; also recorded: comparable level of motility arrest” and the “reduction in mean velocity (motility) of transferred 4F7 T cells” value [3] is reported as “the magnitude of the reduction was significantly smaller than with PBS; also recorded: partial reduction of the 4F7 T cell motility”. For the same substance, the “ability of ConA-activated macrophages to present insulin” value [4] was “impaired”.
For “insulin: insulin (19278; Sigma) used as antigen”, the “need for internal processing for T cell reactivity” value [5] was “require internal processing”.
“B:9-23: insulin B-chain peptide, segment 9-23 (SHLVEALYLVCGERG)” was tested, and the “need for internal processing for T cell reactivity” value [5] was “not to B:9-23 or B:1-30 require internal processing”.
“fluorochrome-labelled B:9-23: Alexa Fluor 488-conjugated B:9-23 peptide (SHLVEALYLVCGERG; also: Alexa Fluor 488-conjugated (position not given here))” was tested, and the “display by APCs in spleen” value [6] was “rapidly displayed by I-A^g7-expressing APCs in spleen” and the “display by APCs in thymus” value [6] was “not in thymus”.
